Experimental data published in patent publication US6916843B1, “Anti-inflammatory actions of cytochrome P450 expoxygenase-derived eicosanoids” (The United States of America as represented by the …, priority 1999, dated 2005).

Key:
VCAM-1 expression = assay: Cell-surface enzyme immunoassay of cytokine-induced VCAM-1 expression in endothelial cells; assay type: cell-based, human; settings: human endothelial cells, 1-100 nM
Protocol: FIG. 2 is a set of bar graphs of cell-surface enzyme immunoassays. […] The difference between treatment with TNF-α alone and in the presence of [11,12]-EET were statistically significant (*p<0.05, **p<0.01), OD, optical density. […] After stimulation with TNF-α (10 ng/ml) in the presence or absence of EET, promoter activity was determined relative to basal activity. *p<0.01 vs. TNF-α alone.
To determine the biological effects of EETs, we treated tumor necrosis factor alpha (TNF-α)-stimulated human endothelial cells with physiological relevant concentrations (1-100 nM) of [5,6]-EET, [8,9]-EET, [11,12]-EET, [14,15]-EET, [11,12]-DHET.

[1] = test system: mononuclear cell adhesion to carotid artery; assay: TNF-α-induced mononuclear cell (U937) adhesion in the murine carotid artery; assay type: in vivo; settings: mouse, intra-arterial infusion 100 ng/kg/min, TNF-α 10 μg/kg i.p., 5 hours
Protocol: FIG. 3A is a graph showing the expression of VCAM-1 in the murine carotid artery at 5 hours after treatment with intraperitaneal injection of TNF-α (10 μg/kg) alone or in combination with continuous intra-arterial infusion of [11,12]-EET (100 ng/kg/min). FIG. 3B is a bar graph showing the effect of [11,12]-EET on TNF-α induced mononuclear cell adhesion in the murine carotid artery. The mononuclear cells (U937) were perfused through the carotid artery at a wall shear stress of 3 dyn/cm^2. Intra-arterial infusion of vehicle (saline) or [14,15]-EET (100 ng/kg/min) had no effect. […] All experiments except the [14,15]-EET infusion were performed in duplicate.
To determine the functional relevance of EETs in vascular inflammation, we tested [11,12]-EET and its regioisomer [14,15]-EET in a recently developed in vivo model of TNF-α-induced VCAM-1 -mediated mononuclear cell adhesion in the murine carotid artery. […]
Cell rolling and adhesion were recorded on videotape using stroboscopic epifluoresence illumination with an introvital microscope (objective Zeiss 20×, 0.5 numerical aperture). […] In separate experiments, VCAM-1 expression was measured in paraffin-sections (5 μm thick) of carotid arteries harvested from mice treated in the same way. […]

## CCCCC/C=C\C[C@H]1O[C@H]1C/C=C\C/C=C\CCCC(=O)O [[11,12]-EET]
VCAM-1 expression; TNF-α
  inhibition of TNF-α-induced VCAM-1 expression (rank/words): most effective
VCAM-1 expression; TNF-α 10 ng/ml
  maximal inhibition of TNF-α-induced VCAM-1 expression: 75%
[1]
  mononuclear cell adhesion to the vessel wall: inhibited
